# Results published in US7138493B1, “ATP-binding cassette protein responsible for cytotoxin resistance” (The United States of America as represented by the …, priority 1998, dated 2006).
# What was measured:
# [1] = system: cells that overexpress MXR1; assay: Drug resistance of cells that overexpress MXR1; format: cell-based
# Description: These include mitoxantrone, several anthracyclines, rhodamine, daunomycin, SN-38 (the active metabolite of CPT-11), topotecan, and bisantrene. To identify compounds that can reverse the effect of ABCP overexpression, the concentration of drug that inhibits the proliferation of resistant cells by 50% (IC50) can be measured by an assay in the presence and absence of putative inhibitors. Compounds that cause a significant decrease in the IC50 will represent inhibitors and be characterized further.
# These include mitoxantrone, several anthracyclines, rhodamine, daunomycin, SN-38 (the active metabolite of CPT-11), topotecan, and bisantrene. To identify compounds that can reverse the effect of MXR1 overexpression, the concentration of drug that inhibits the proliferation of resistant cells by 50% (IC50) will be measured in the presence and absence of putative inhibitors. Compounds that cause a significant decrease in the IC50 will represent inhibitors and be characterized further. For example, S1-M1-80 cells can be incubated in media containing 30 micromolar (IC10) of mitoxantrone and the proliferation of the cells measured by sulforhodamine staining after 96 hours with and without the addition of various potential inhibitors, as a screening assay. Next, for compounds that have potential activity, a formal calculation of the IC50 can be made by incubating the cells in a range of concentrations, diluting 3-fold from 3 mM, again, with and without the inhibitor in question. […] In the absence of a reversal agent, the IC50 is 100 micromolar for the S1M1-80 cells. Compounds that lower the IC50 for mitoxantrone can be tested for their ability to also lower the IC50 for other MXR1-transporting drugs such as adriamycin, topotecan, or bisantrene.
# S1-M1-80 cells = assay: Proliferation of mitoxantrone resistant cells measured by sulforhodamine staining; format: cell-based, human
# Method: The cells are then contacted with a toxic chemotherapy drug, such as mitoxantrone or daunomycin, in an amount that permits cell survival due to the resistance conferred by the ATP-binding cassette protein. The amount used is preferably from about 30 μM to about 3 mM. The cells are exposed to the drug for a time that is preferably from about 48 hours to about 96 hours. Cell growth is measured for these cells based on sulforhodamine staining measurement. Alternatively, cell growth can be monitored by vital stains, metabolite measurements or counting cell divisions.
# One specific way to measure cell viability is by a calorimetric assay (Skehan et al., Natl. Cancer Inst. 82: 1117–1121 (1990)). […] The number of viable cells can then be determined by measuring the OD at 570 nm. Alternatively, viability of cells can be measured by counting cells with a cell counter or by incorporation of tritiated thymidine.
# These include mitoxantrone, several anthracyclines, rhodamine, daunomycin, SN-38 (the active metabolite of CPT-11), topotecan, and bisantrene. […] For example, S1-M1-80 cells can be incubated in media containing 30 micromolar (IC10) of mitoxantrone and the proliferation of the cells measured by sulforhodamine staining after 96 hours with and without the addition of various potential inhibitors, as a screening assay. […]
Molecule,resistance of cells that overexpress MXR1 to the drug [1],"IC50 (S1-M1-80 cells; Homo sapiens, S1-M1-80, S1M1-80 cells, in the absence of a reversal agent, read-out: IC50 (concentration of drug that inhibits the proliferation of resistant cells by 50%)) [µM]","IC10 (S1-M1-80 cells; S1-M1-80 cells, concentration in media for the screening assay, 96 hours) [µM]"
CCc1c2c(nc3ccc(O)cc13)-c1cc3c(c(=O)n1C2)COC(=O)[C@]3(O)CC [SN-38],resistant,–,–
C(=N\NC1=NCCN1)/c1c2ccccc2c(/C=N/NC2=NCCN2)c2ccccc12 [bisantrene],resistant,–,–
COc1cccc2c1C(=O)c1c(O)c3c(c(O)c1C2=O)C[C@@](O)(C(C)=O)C[C@@H]3O[C@H]1C[C@H](N)[C@H](O)[C@H](C)O1 [daunomycin],resistant,–,–
O=C1c2c(O)ccc(O)c2C(=O)c2c(NCCNCCO)ccc(NCCNCCO)c21 [mitoxantrone],resistant,100,30
CC[C@@]1(O)C(=O)OCc2c1cc1n(c2=O)Cc2cc3c(CN(C)C)c(O)ccc3nc2-1 [topotecan],resistant,–,–
rhodamine,resistant,–,–
